Measurements as given in patent publication US8558011B2, “Cold menthol receptor-1 antagonists” (Janssen Pharmaceutica, NV, priority 2010, dated 2013).
“And” between values parts separate entries of the source, which are not always exact repeats. Identical values can stand only once.

What was measured:
[1] = molecular target: T1, canine TRPM8 (Canis lupus familiaris, UniProt Q1A7N1); test: In Vitro Canine TRPM8 Functional Assay (Ca2+-sensitive fluorescent dye, icilin activation, FLIPR/FDSS); assay type: cell-based; conditions: HEK293 cells stably expressing canine TRPM8, icilin activation; for % I (1 μM): compound at 1 μM; for % I (0.5 μM): compound at 0.5 μM; for IC50: eight-point dose-response
T1 construct: expressed in transfected cells
Protocol: The functional activity of compounds of Formula (I) was determined by measuring changes in intracellular calcium concentration using a Ca^2+-sensitive fluorescent dye. The changes in fluorescent signal were monitored by a fluorescence plate reader, either a FLIPR™ (Molecular Devices) or FDSS (Hamamatsu).
HEK293 cells stably expressing canine TRPM8 were routinely grown as monolayers in Dulbecco's minimum essential medium supplemented with 10% FBS, 1 mM L-glutamine, 100 units/mL penicillin, 100 ug/mL streptomycin and 400 μg/mL G418. Cells were maintained in 5% CO2 at 37° C. At 24 hrs prior to assay, cells were seeded in clear-base poly-D-lysine coated 384-well plates (BD Biosciences, NJ, USA) at a density of 5,000 cells per well in culture medium and grown overnight in 5% CO2 at 37° C. On assay day, growth media was removed and cells were loaded with Calcium 3 Dye (Molecular Devices) for 35 min at 37° C., under 5% CO2 and then for 25 min at room temperature and atmosphere. Subsequently, cells were tested for agonist-induced increases in intracellular Ca^2+ levels using FLIPR™ or FDSS. Cells were challenged with a compound of Formula (I) (at varying concentrations) and intracellular Ca^2+ was measured for 5 min prior to the addition of icilin to all wells to achieve a final concentration which produces approximately an 80% maximal response.
Basal FI was subtracted prior to normalizing data to percent of maximal response. Curves were generated using the average of quadruplicate wells for each data point, were analyzed using nonlinear regression of either sigmoidal dose response or sigmoidal dose response (variable slope). Finally, the EC50 and IC50 values were calculated with the best-fit dose curve determined by GraphPad Prism.

[2] = system: CFA-induced Paw Radiant Heat Hypersensitivity; test: CFA-induced paw radiant heat hypersensitivity; assay type: in vivo, rat
Protocol: Intraplantar injection of Complete Freund's Adjuvant (CFA) in rodents results in a long-lasting inflammatory reaction, characterized by a pronounced hypersensitivity to both thermal and mechanical stimuli. This hypersensitivity peaks between 24-72 hours following injection and can last for several weeks. […] This paradigm also may be conducted with a multiple dosing or a prophylactic dosing regime designed to alter the course of hyperalgesia development. This test predicts the analgesic, anti-allodynic and antihyperalgesic effect of numerous effective clinical agents, including NSAIDS such as acetaminophen, aspirin and ibuprofen, and opioids such as morphine.
Each rat was placed in a test chamber on a warm glass surface and allowed to acclimate for approximately 10 minutes. A radiant thermal stimulus (beam of light) was then focused through the glass onto the plantar surface of each hind paw in turn. The thermal stimulus was automatically shut off by a photoelectric relay when the paw was moved or when the cut-off time was reached (20 seconds for radiant heat at ˜5 Amps). An initial (baseline) response latency to the thermal stimulus was recorded for each animal prior to the injection of CFA. Twenty-four hours following intraplantar CFA injection, the response latency of the animal to the thermal stimulus was then re-evaluated and compared to the animal's baseline response time. […] Immediately following the post-CFA latency assessment, test compound or vehicle (usually Solutol, hydroxypropyl methylcellulose, hydroxypropyl beta-cyclodextrin or PEG-400) was administered i.p. or p.o. to rats. […] The percent reversal (% R) of hypersenstivitiy was calculated according to the following formula: % Reversal=(Treatment Response−CFA Response)/(Baseline Response−CFA Response)×100.

T1 sequence (Q1A7N1 1-1104): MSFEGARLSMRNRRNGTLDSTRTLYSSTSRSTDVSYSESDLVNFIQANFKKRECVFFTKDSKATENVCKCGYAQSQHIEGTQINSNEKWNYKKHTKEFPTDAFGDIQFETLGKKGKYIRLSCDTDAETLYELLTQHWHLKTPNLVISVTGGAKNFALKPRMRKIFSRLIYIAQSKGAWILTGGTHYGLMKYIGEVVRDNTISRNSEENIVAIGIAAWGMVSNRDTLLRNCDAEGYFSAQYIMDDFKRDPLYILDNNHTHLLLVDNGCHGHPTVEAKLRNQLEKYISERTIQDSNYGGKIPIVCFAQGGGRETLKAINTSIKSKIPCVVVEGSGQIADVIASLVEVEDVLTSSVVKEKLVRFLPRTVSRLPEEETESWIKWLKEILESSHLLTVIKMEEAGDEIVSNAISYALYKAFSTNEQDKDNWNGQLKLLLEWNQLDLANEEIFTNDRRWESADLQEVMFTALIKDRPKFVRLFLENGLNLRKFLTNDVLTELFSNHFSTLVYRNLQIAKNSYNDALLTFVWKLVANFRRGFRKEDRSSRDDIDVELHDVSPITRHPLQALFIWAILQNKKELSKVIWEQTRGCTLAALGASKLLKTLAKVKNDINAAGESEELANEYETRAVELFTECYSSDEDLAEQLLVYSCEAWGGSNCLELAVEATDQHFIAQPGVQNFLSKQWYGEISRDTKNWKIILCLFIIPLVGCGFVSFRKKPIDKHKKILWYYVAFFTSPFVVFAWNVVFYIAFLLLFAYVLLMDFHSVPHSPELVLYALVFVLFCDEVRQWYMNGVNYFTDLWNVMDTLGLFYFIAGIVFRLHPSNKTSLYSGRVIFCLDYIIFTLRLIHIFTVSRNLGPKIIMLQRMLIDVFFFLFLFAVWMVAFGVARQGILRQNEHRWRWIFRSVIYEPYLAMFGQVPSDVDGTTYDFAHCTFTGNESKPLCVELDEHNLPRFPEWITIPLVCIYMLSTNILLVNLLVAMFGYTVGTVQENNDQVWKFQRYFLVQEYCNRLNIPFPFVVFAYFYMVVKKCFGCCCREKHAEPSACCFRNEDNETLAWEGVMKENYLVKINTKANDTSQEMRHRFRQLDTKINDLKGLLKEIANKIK

Row | Compound | % I (0.5 μM) [1] | IC50 [1] | further results
1 | CC(C)OP(=O)(OC(C)C)C(Cc1ccc(F)c(F)c1)c1sc2ccccc2c1Cl (stereo not drawn) [Cpd 12, [1-(3-Chloro-benzo[b]thiophen-2-yl)-2-(3,4-difluoro-phenyl)-ethyl]-phosphonic acid diisopropyl ester] |  |  | % I (1 μM) [1]: 100%; % Reversal ([2]; 30 mg/kg i.p., time 1 h): 105%
2 | CCOP(=O)(OCC)C(Cc1ccc(F)c(F)c1)c1sc2ccccc2c1Br (stereo not drawn) [Cpd 127, [1-(3-Bromo-benzo[b]thiophen-2-yl)-2-(3,4-difluoro-phenyl)-ethyl]-phosphonic acid dethyl ester] |  |  | % I (1 μM) [1]: 100%; % Reversal ([2]; 30 mg/kg p.o., time 1 (h)): 88%
3 | CCOP(=O)(OCC)C(Cc1cccc(Cl)c1)c1sc2ccccc2c1Br (stereo not drawn) [Cpd 137, [1-(3-Bromo-benzo[b]thiophene-2-yl)-2-(3-chloro-phenyl)-ethyl]-phosphonic acid diethyl ester] | 102% |  | % Reversal ([2]; 30 mg/kg p.o., time 1 (h)): 34%
4 | CC(C)OP(=O)(OC(C)C)C(Cc1cccc(O)c1F)c1sc2ccccc2c1Br (stereo not drawn) [Cpd 230] | 97% | 0.01 µM | 
5 | CCOP(=O)(OCC)C(Cc1cc(O)c(Cl)cc1F)c1sc2ccccc2c1Br (stereo not drawn) [Cpd 231] | 98% | 0.122 µM | 
6 | CC(C)OP(=O)(OC(C)C)C(Cc1cc(O)c(Cl)cc1F)c1sc2ccccc2c1Br (stereo not drawn) [Cpd 232] | 99% | 0.063 µM | 
7 | CC(C)OP(=O)(OC(C)C)[C@H](Cc1ccc(F)c(F)c1)c1sc2ccccc2c1Br [Cpd 235, (R)-[1-(3-Bromo-benzo[b]thiophen-2-yl)-2-(3,4-difluoro-phenyl)-ethyl]-phosphonic acid diisopropyl ester] | 56% |  | 
8 | CCOP(=O)(OCC)C(Cc1ccc(F)cc1)c1sc2ccccc2c1Br (stereo not drawn) [Cpd 238, [1-(3-Bromo-benzo[b]thiophen-2-yl)-2-(4-fluoro-phenyl)-ethyl]-phosphonic acid diethyl ester] | 104% |  | % Reversal ([2]; 30 mg/kg p.o., time 2 (h)): 56%
9 | CCOP(=O)(OCC)C(Cc1ccc(F)c(Cl)c1)c1sc2ccccc2c1Br (stereo not drawn) [Cpd 244] | 103% | 0.028 µM | % Reversal ([2]; 30 mg/kg p.o., time 2 (h)): 45%
10 | CCOP(=O)(OCC)C(Cc1ccc(F)cc1C(F)(F)F)c1sc2ccccc2c1Br (stereo not drawn) [Cpd 245] | 103% | 0.124 µM | 
11 | CCOP(=O)(OCC)C(Cc1ccc(SC)cc1)c1sc2ccccc2c1Br (stereo not drawn) [Cpd 247] | 103% | 0.121 µM | 
12 | CC(C)OP(=O)(OC(C)C)C(Cc1ccc(F)c(Cl)c1)c1sc2ccccc2c1Br (stereo not drawn) [Cpd 248] | 104% | 0.021 µM | 
13 | CCOP(=O)(OCC)C(Cc1ccccc1C(F)(F)F)c1sc2ccccc2c1Cl (stereo not drawn) [Cpd 279] | 97% | 0.291 µM | 
14 | CCOP(=O)(OCC)C(Cc1cccc(C(F)(F)F)c1Cl)c1sc2ccccc2c1Cl (stereo not drawn) [Cpd 280] | 101% | 0.227 µM | 
15 | CCOP(=O)(OCC)C(Cc1cccc(C(F)(F)F)c1F)c1sc2ccccc2c1Cl (stereo not drawn) [Cpd 281] | 102% | 0.131 µM | 
16 | CCOP(=O)(OCC)C(Cc1cc(C(F)(F)F)cc(C(F)(F)F)c1)c1sc2ccccc2c1Cl (stereo not drawn) [Cpd 282] | 100% | 0.235 µM | 
17 | CCOP(=O)(OCC)C(Cc1ccc(SC(F)(F)F)cc1)c1sc2ccccc2c1Cl (stereo not drawn) [Cpd 283] | 103% | 0.125 µM | 
18 | CCOP(=O)(OCC)C(Cc1ccc(F)cc1)c1sc2ccccc2c1Cl (stereo not drawn) [Cpd 284] | 103% and 102% | 0.079 µM and 0.065 µM | 
19 | CCOP(=O)(OCC)C(Cc1ccc(C(F)(F)F)cc1)c1sc2ccccc2c1Cl (stereo not drawn) [Cpd 285] | 103% | 0.125 µM | 
20 | CCOP(=O)(OCC)C(Cc1cc(C(F)(F)F)ccc1F)c1sc2ccccc2c1Cl (stereo not drawn) [Cpd 286] | 102% | 0.127 µM | 
21 | CCOP(=O)(OCC)C(Cc1ccc(Cl)c(C(F)(F)F)c1)c1sc2ccccc2c1Cl (stereo not drawn) [Cpd 287] | 103% | 0.124 µM | 
22 | CC(C)OP(=O)(OC(C)C)C(Cc1ccc(Cl)cc1)c1sc2ccccc2c1Br (stereo not drawn) [Cpd 288] | 103% | 0.065 µM | 

Row | Compound | % I (0.5 μM) [1] | IC50 [1] | further results
23 | CC(C)OP(=O)(OC(C)C)C(Cc1ccc(C(F)(F)F)cc1F)c1sc2ccccc2c1Br (stereo not drawn) [Cpd 289] | 103% | 0.051 µM | 
24 | CCOP(=O)(OCC)C(Cc1cccc(Cl)c1)c1sc2ccccc2c1Cl (stereo not drawn) [Cpd 290] | 103% | 0.115 µM | 
25 | CCOP(=O)(OCC)C(Cc1ccc(C(F)(F)F)cc1F)c1sc2ccccc2c1Cl (stereo not drawn) [Cpd 291] | 103% | 0.156 µM | 
26 | CCOP(=O)(OCC)C(Cc1ccc(OC)c(C(F)(F)F)c1)c1sc2ccccc2c1Cl (stereo not drawn) [Cpd 292] | 99% | 0.216 µM | 
27 | CCOP(=O)(OCC)C(Cc1ccc(Cl)cc1)c1sc2ccccc2c1Cl (stereo not drawn) [Cpd 293] | 103% | 0.156 µM | 
28 | CCOP(=O)(OCC)C(Cc1ccc(F)c(C(F)(F)F)c1)c1sc2ccccc2c1Cl (stereo not drawn) [Cpd 294] | 103% | 0.118 µM | 
29 | CCOP(=O)(OCC)C(Cc1cccc(Br)c1)c1sc2ccccc2c1Br (stereo not drawn) [Cpd 295] | 102% and 103% | 0.031 µM and 0.016 µM | 
30 | CCOP(=O)(OCC)C(Cc1cccc(SC(F)(F)F)c1)c1sc2ccccc2c1Cl (stereo not drawn) [Cpd 296] | 102% | 0.137 µM | 
31 | CCOP(=O)(OCC)C(Cc1ccc(F)c(Cl)c1)c1sc2ccccc2c1Cl (stereo not drawn) [Cpd 297] | 103% | 0.04 µM | 
32 | CCOP(=O)(OCC)C(Cc1ccc(F)c(C(F)(F)F)c1)c1sc2ccccc2c1Cl (stereo not drawn) [Cpd 298] | 99% | 0.085 µM | % Reversal ([2]; 30 mg/kg p.o., time 1 (h)): 20%
33 | CCOP(=O)(OCC)C(Cc1ccc(SC)cc1)c1sc2ccccc2c1Cl (stereo not drawn) [Cpd 299] | 101% | 0.141 µM | % Reversal ([2]; 30 mg/kg p.o., time 1 (h)): 23%
34 | CCOP(=O)(OCC)C(Cc1ccc(S(=O)(=O)C(F)(F)F)cc1)c1sc2ccccc2c1Cl (stereo not drawn) [Cpd 300] | 103% | 0.089 µM | 
35 | CC(C)OP(=O)(OC(C)C)C(Cc1cccc(OC(F)(F)F)c1)c1sc2ccccc2c1Cl (stereo not drawn) [Cpd 301] | 102% | 0.054 µM | 
36 | CC(C)OP(=O)(OC(C)C)C(Cc1ccc(Cl)c(F)c1)c1sc2ccccc2c1Cl (stereo not drawn) [Cpd 302] | 103% | 0.079 µM | 
37 | CC(C)OP(=O)(OC(C)C)C(Cc1cc(Cl)ccc1F)c1sc2ccccc2c1Cl (stereo not drawn) [Cpd 303] | 102% | 0.049 µM | 
38 | CC(C)OP(=O)(OC(C)C)C(Cc1ccc(SC(F)(F)F)cc1)c1sc2ccccc2c1Cl (stereo not drawn) [Cpd 304] | 102% | 0.028 µM | 
39 | CCOP(=O)(OCC)C(Cc1cc(Cl)ccc1F)c1sc2ccccc2c1Cl (stereo not drawn) [Cpd 305] | 102% | 0.07 µM | 
40 | CC(C)OP(=O)(OC(C)C)C(Cc1ccc(F)cc1)c1sc2ccccc2c1Cl (stereo not drawn) [Cpd 306] | 101% and 102% |  | 
41 | CCOP(=O)(OCC)C(Cc1cc(Cl)ccc1F)c1sc2ccccc2c1Br (stereo not drawn) [Cpd 307] | 103% | 0.026 µM | 
42 | CC(C)OP(=O)(OC(C)C)C(Cc1cc(Cl)ccc1F)c1sc2ccccc2c1Br (stereo not drawn) [Cpd 308] | 103% | 0.017 µM | 
43 | CCOP(=O)(OCC)C(Cc1cccc([N+](=O)[O-])c1)c1sc2ccccc2c1Br (stereo not drawn) [Cpd 315] | 103% |  | 
44 | CCOP(=O)(OCC)C(Cc1cccc(N)c1)c1sc2ccccc2c1Br (stereo not drawn) [Cpd 318, [2-(3-Amino-phenyl)-1-(3-bromo-benzo[b]thiophen-2-yl)-ethyl]-phosphonic acid diethyl ester] | 100% |  | 
